# Assay results taken from ChEMBL document CHEMBL4118250, “Discovery of Novel Pyrazole-Based Selective Aldosterone Synthase (CYP11B2) Inhibitors: A New Template to Coordinate the Heme-Iron Motif of CYP11B2” (J Med Chem, 2018).
# Columns and labels:
# [1] = Apparent passive permeability in human Caco2 cells; assay type: ADME, cell-based; conditions: Caco-2
# [2] = Solubility of the compound; assay type: physicochemical
# Cynomolgus monkey [3] = assay: Time at which maximum plasma concentration stays above in vitro human CYP11B2 IC50 in cynomolgus monkey at 3 mg/kg, po administered as single dose by LC-MS/MS analysis; assay type: ADME, organism-based, Macaca fascicularis; conditions: in vivo
# Cynomolgus monkey [4] = assay: Time at which maximum plasma concentration stays below in vitro human CYP11B2 IC50 in cynomolgus monkey at 3 mg/kg, po administered as single dose by LC-MS/MS analysis; assay type: ADME, organism-based, Macaca fascicularis; conditions: in vivo
# [5] = Tmax in cynomolgus monkey at 1 mg/kg, po administered as single dose by LC-MS/MS analysis; assay type: ADME, organism-based, Macaca fascicularis; conditions: in vivo
Papp [1] [×10⁻⁶ cm/s],solubility [2],Time (Cynomolgus monkey [3]) [h],Time (Cynomolgus monkey [4]) [h],Tmax [5] [h],SMILES
68.4,Soluble,8,24,–,Cc1cc(C#N)ccc1-c1cnn2c1C[C@@H](O)C2
62.3,–,–,–,4,Cc1cc(C#N)ccc1-c1cnn2c1C[C@@H](Oc1ncc(F)cn1)C2
